Measurements as given in ChEMBL document CHEMBL3431459, “Roche carnitine palmitoyltransferase modulator screening data (supplementary data associated with the publication CHEMBL2216752)”.
≈ marks a conversion by molar mass, not a printed value.

Assays:
[1] = molecular target: T1, Carnitine O-palmitoyltransferase 1, liver isoform (Homo sapiens, UniProt P50416); experiment: (§1) SUPPLEMENTARY: Inhibition of Carnitine palmitoyltransferase 1, liver isoform
T1 sequence (P50416 whole entry): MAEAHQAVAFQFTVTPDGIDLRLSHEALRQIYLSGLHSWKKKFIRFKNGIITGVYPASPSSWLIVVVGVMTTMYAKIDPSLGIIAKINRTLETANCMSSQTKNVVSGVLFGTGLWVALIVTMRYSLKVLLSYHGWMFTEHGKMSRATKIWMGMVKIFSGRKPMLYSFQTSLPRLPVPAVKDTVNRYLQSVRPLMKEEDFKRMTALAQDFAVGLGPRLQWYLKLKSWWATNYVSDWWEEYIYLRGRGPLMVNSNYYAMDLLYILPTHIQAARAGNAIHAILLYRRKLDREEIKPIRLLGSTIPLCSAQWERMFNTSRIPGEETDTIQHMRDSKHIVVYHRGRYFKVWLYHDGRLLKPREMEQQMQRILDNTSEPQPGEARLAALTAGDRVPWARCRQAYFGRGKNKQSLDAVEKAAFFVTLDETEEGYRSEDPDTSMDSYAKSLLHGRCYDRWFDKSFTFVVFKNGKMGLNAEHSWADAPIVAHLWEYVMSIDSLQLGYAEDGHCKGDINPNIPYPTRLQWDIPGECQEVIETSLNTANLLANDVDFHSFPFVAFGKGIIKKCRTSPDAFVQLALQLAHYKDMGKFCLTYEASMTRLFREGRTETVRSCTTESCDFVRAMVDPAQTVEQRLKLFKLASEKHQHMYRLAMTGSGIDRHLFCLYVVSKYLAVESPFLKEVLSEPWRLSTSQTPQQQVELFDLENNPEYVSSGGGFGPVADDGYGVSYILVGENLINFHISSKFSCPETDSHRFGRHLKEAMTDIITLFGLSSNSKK

[2] = molecular target: T2, Carnitine O-palmitoyltransferase 1, liver isoform (Rattus norvegicus, UniProt P32198); experiment: as §1
T2 sequence (P32198 whole entry): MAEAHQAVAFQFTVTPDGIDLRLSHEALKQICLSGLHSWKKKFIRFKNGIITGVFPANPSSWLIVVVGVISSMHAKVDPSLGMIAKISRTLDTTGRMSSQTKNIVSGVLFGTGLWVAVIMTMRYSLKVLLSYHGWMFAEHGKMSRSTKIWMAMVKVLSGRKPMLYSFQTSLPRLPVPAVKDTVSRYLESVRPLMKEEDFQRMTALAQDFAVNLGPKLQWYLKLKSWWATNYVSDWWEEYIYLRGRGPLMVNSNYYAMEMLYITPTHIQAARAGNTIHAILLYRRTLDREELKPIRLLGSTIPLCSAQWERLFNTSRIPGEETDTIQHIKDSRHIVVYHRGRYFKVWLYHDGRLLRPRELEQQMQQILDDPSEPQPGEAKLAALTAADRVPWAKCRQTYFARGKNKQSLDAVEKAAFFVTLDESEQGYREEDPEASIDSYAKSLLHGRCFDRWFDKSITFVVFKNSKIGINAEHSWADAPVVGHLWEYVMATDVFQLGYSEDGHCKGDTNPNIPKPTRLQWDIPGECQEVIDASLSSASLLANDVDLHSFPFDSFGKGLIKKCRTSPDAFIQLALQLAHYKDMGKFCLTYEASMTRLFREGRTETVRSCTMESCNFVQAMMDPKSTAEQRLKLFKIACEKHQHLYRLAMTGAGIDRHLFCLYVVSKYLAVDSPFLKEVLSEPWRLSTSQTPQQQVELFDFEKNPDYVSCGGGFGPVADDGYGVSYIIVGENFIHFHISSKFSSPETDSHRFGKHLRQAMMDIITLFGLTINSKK

[3] = SUPPLEMENTARY: Lyophilisation Solubility Assay (LYSA); assay type: physicochemical; conditions: read-out: Kinetic_solubility
[4] = SUPPLEMENTARY: PAMPA permeability assay; assay type: physicochemical; conditions: read-out: Permeability
[5] = molecular target: T3, Carnitine O-palmitoyltransferase 1, muscle isoform (Homo sapiens, UniProt Q92523); experiment: SUPPLEMENTARY: Inhibition of Carnitine palmitoyltransferase 1, muscle isoform; design: species or system Muscle tissue
T3 sequence (Q92523 whole entry): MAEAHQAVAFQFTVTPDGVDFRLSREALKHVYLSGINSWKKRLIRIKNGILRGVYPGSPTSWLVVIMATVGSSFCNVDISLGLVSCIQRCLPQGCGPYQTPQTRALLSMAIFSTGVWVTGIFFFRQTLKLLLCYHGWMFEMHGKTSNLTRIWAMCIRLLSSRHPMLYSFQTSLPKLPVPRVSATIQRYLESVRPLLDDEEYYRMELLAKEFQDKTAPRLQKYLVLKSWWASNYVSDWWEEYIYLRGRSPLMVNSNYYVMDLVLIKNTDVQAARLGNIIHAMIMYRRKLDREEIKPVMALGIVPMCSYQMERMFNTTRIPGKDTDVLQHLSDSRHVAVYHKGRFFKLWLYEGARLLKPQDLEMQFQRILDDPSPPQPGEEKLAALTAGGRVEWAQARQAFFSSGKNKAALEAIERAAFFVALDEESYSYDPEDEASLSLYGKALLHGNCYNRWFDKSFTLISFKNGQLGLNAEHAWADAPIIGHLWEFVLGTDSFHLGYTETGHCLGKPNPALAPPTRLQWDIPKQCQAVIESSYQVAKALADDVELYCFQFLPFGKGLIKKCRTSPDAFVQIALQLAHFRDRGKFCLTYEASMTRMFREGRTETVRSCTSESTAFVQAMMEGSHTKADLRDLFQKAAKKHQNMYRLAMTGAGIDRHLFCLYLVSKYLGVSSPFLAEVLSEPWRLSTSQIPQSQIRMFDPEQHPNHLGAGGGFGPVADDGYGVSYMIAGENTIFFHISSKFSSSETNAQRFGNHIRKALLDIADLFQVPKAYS

[6] = SUPPLEMENTARY: Lipophilicity (log D) Determination by high-throughput shake-flask; assay type: physicochemical; conditions: octanol/water
[7] = molecular target: T4, Carnitine O-palmitoyltransferase 2, mitochondrial (Rattus norvegicus, UniProt P18886); experiment: (§2) SUPPLEMENTARY: Inhibition of Carnitine palmitoyltransferase 2
T4 sequence (P18886 whole entry): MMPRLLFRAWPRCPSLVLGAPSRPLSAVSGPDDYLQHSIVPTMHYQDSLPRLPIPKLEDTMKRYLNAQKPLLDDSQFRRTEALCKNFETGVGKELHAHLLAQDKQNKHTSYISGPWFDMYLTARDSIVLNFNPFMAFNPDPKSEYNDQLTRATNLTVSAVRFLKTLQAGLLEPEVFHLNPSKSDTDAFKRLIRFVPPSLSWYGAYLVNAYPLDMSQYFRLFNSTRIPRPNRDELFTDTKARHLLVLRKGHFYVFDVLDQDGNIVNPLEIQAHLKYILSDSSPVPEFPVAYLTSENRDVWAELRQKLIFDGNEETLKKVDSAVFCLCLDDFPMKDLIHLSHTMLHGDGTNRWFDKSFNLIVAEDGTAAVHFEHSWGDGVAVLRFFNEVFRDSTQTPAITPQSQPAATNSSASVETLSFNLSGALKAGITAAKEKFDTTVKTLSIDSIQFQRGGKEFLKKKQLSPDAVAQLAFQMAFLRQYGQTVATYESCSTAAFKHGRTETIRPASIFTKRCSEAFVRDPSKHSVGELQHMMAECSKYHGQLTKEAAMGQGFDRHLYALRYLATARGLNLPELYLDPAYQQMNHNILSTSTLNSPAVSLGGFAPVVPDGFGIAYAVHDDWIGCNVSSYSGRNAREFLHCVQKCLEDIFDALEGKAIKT

[8] = molecular target: T5, Carnitine O-palmitoyltransferase 2, mitochondrial (Homo sapiens, UniProt P23786); experiment: as §2
T5 sequence (P23786 whole entry): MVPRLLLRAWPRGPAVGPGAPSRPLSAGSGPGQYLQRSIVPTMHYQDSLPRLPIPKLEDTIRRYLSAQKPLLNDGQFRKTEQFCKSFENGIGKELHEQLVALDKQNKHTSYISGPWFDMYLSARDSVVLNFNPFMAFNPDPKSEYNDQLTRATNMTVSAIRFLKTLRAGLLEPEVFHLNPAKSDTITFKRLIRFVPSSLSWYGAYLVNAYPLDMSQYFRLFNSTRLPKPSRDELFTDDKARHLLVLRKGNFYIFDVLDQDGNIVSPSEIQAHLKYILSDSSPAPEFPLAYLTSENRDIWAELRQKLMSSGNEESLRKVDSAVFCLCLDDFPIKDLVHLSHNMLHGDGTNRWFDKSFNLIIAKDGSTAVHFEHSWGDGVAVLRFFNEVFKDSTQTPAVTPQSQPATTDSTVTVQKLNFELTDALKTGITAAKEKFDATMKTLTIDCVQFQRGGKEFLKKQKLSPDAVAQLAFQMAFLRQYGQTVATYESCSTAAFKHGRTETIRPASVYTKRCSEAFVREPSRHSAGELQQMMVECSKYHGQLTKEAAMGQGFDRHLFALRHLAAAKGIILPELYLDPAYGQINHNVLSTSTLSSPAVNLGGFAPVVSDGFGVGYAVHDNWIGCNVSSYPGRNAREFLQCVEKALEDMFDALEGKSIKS

Row | Compound | IC50 [1] | IC50 [2] | solubility kinetic [3] | Papp [4] | IC50 [5] | logD [6] | IC50 [7] | IC50 [8]
1 | COc1ccc(Cl)cc1S(=O)(=O)N1CCOc2c(Cl)cc(C(=O)Nc3ccc(C(=O)O)cc3)cc21 | 77 nM | 49.4 nM | 1 µg/mL (≈ 1.86 µM) | 2.19 ×10⁻⁶ cm/s | 2610 nM | 3.15 | 28200 nM | 578 nM
2 | Cc1cc(C(=O)Nc2ccc(C(=O)O)cc2)cc(S(=O)(=O)Nc2cccc(C(F)(F)F)c2)c1C | 122 nM | 568 nM | 310 µg/mL (≈ 629 µM) | 0.841 ×10⁻⁶ cm/s | 30200 nM | 1.62 | 1350 nM | 1820 nM
3 | COc1ccc(Cl)cc1S(=O)(=O)Nc1cc(C(=O)Nc2ccccc2)ccc1/C=C/C(=O)O | 136 nM | 79.8 nM | > 585 µg/mL | 1 ×10⁻⁶ cm/s | 83100 nM | 0.36 | > 100000 nM | > 100000 nM
4 | NS(=O)(=O)c1ccc(C#C[C@H]2CCCCN2C(=O)COc2ccccc2)cc1 | 86.6 nM | 83.8 nM | 8 µg/mL (≈ 20.1 µM) | 4.11 ×10⁻⁶ cm/s | > 100000 nM | 3.01 | > 100000 nM | > 100000 nM
5 | Cn1ccc(-c2nc([C@H]3CCCCN3C(=O)COc3ccccc3)no2)n1 | 156 nM | 555 nM | 94 µg/mL (≈ 256 µM) | 9.41 ×10⁻⁶ cm/s | > 100000 nM | 2.16 | > 100000 nM | > 100000 nM
6 | Cn1cc(S(=O)(=O)c2cccc(Cl)c2)c2cc(C(=O)Nc3ccc(C(=O)O)cc3)ccc21 | 18.8 nM | 11.2 nM | 3 µg/mL (≈ 6.4 µM) | 1.01 ×10⁻⁶ cm/s | 920 nM | 2.54 | 2500 nM | 1500 nM
7 | O=C(COc1ccccc1)N1CCCC[C@@H]1c1noc(C2(C(F)(F)F)CC2)n1 | 85.8 nM | 1430 nM | < 1 µg/mL | 5.37 ×10⁻⁶ cm/s | 29700 nM | 3.2 | > 100000 nM | > 100000 nM
8 | O=C(COc1ccccc1)N1CCCC[C@@H]1c1nc(-c2ccc([N+](=O)[O-])o2)no1 | 68.2 nM | 297 nM | 6 µg/mL (≈ 15.1 µM) | 5.09 ×10⁻⁶ cm/s | > 100000 nM | 2.53 | 35700 nM | 9990 nM
9 | O=C(Nc1ccc(C(=O)O)c(Cl)c1)c1ccc2c(c1)N(S(=O)(=O)c1cc(Cl)cc(Cl)c1)CC2 | 90.2 nM | 65.1 nM | 16 µg/mL (≈ 30.4 µM) | 1.89 ×10⁻⁶ cm/s | 3830 nM | 2.67 | 3350 nM | 2460 nM
10 | O=C(c1nc([C@H]2CCCCN2C(=O)COc2ccccc2)no1)N1CCC(c2ccncc2)C1 (some centres not stated) | 216 nM | 1670 nM | 204 µg/mL (≈ 442 µM) | 4.27 ×10⁻⁶ cm/s | > 100000 nM | 2.12 | 57300 nM | 19100 nM
11 | O=C(COc1ccccc1)N1CCCC[C@@H]1c1noc(-c2cnnc3ccccc23)n1 | 49.1 nM | 136 nM | 18 µg/mL (≈ 43.3 µM) | 3.59 ×10⁻⁶ cm/s | > 100000 nM | 2.9 | 89900 nM | 18800 nM
12 | COc1ccc(Cl)cc1S(=O)(=O)N(C)c1cc(C(=O)Nc2ccn(CC(=O)O)n2)cc2c1OCO2 | 197 nM | 527 nM | > 566 µg/mL | 0.13 ×10⁻⁶ cm/s | 4260 nM | -1.41 | > 100000 nM | > 100000 nM
13 | CCOC(=O)c1cn2ccc(-c3noc([C@H]4CCCCN4C(=O)COc4ccccc4)n3)cc2n1 | 68.1 nM | 459 nM | 22 µg/mL (≈ 46.3 µM) | 1.99 ×10⁻⁶ cm/s | > 100000 nM | 2.92 | > 100000 nM | > 100000 nM
14 | COc1ccc(Cl)cc1S(=O)(=O)N1CCOc2c(Cl)cc(C(=O)Nc3nc(CC(=O)O)cs3)cc21 | 50.3 nM | 54 nM | 12 µg/mL (≈ 21.5 µM) | 2.6 ×10⁻⁶ cm/s | 1180 nM | 2.28 | > 100000 nM | > 100000 nM
